The text below walks through data of patent US20170190705A1, “Compositions and Methods for Inhibiting BMP” (THE BRIGHAM AND WOMAN'S HOSPITAL, INC., priority 2014, published 2017).

Structures are written as SMILES. Where two headings read alike, the source gives them in different places.

Format in all cases: biochemical
One assay addresses T1, DDR2 (Homo sapiens, UniProt Q16832).
T1 sequence (Q16832 22-855): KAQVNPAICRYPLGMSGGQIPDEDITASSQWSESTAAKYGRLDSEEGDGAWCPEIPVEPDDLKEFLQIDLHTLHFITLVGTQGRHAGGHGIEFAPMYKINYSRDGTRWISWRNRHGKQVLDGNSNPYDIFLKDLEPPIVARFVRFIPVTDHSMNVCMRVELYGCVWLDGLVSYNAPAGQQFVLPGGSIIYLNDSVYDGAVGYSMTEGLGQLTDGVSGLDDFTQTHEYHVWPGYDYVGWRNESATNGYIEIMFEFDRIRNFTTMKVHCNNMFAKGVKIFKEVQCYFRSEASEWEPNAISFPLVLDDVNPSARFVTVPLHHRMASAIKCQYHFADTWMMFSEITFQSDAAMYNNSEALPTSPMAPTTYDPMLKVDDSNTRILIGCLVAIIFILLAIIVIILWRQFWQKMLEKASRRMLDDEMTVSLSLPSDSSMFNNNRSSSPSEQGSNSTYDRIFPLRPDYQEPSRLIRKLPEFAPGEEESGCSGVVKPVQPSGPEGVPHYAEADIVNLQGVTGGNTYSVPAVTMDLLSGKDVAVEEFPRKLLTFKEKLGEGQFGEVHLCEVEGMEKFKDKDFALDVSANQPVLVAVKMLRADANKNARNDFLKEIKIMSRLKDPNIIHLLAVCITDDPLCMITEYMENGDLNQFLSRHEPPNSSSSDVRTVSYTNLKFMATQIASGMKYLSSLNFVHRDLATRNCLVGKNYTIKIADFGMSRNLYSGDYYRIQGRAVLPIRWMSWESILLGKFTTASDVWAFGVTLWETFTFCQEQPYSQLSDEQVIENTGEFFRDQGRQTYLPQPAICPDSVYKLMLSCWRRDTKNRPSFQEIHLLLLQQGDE
The assay is described as follows: Kinome profiling DDR2. The conditions noted are these: read-out: Inhibitory activity DDR2; for inhibition at 0.1 µM: 100 nM. How it is done:
(§1) . The kinome-wide selectivity was determined following the methods previously reported by Mohedas et al., ACS Chem Biol 2013, 8, 1291-1302 and Sanvitale et al., PLoS One 2013, 8, e62721.

A further assay has as its target BLK (Homo sapiens, UniProt P51451). The assay can be described thus: Kinome profiling BLK. The following applies: read-out: Inhibitory activity BLK; for inhibition at 0.1 µM: 100 nM. As for the experimental part:
as §1

Another assay has as its target T2, PRKD2 (Homo sapiens, UniProt Q9BZL6).
T2 sequence (Q9BZL6 1-878): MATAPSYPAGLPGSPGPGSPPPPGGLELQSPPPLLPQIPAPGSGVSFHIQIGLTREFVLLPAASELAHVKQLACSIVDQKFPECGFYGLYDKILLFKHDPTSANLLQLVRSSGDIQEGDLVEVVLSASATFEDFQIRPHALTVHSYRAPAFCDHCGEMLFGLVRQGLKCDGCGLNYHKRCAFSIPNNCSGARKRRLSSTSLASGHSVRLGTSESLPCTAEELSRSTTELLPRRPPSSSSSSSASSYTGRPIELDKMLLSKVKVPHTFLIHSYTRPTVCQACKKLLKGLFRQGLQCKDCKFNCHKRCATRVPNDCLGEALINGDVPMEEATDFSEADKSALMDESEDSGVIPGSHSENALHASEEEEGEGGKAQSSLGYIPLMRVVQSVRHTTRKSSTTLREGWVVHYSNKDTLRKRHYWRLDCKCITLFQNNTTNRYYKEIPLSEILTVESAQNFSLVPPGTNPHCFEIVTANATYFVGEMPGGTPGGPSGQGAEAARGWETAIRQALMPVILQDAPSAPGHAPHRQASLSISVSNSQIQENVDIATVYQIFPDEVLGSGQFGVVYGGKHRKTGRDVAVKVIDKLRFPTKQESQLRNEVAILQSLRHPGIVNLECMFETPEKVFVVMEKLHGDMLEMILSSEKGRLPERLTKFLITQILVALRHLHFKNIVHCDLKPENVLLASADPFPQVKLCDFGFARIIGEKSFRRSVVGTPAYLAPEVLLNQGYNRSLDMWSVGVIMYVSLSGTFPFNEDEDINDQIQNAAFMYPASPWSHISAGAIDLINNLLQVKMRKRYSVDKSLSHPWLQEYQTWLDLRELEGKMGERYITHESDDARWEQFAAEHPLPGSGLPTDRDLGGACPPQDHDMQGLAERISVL
The assay can be described thus: Kinome profiling PRKD2. The following applies: for inhibition at 0.1 µM: 100 nM. How it is done:
as §1

Another assay addresses TNK2 (Homo sapiens, UniProt Q07912). The assay is described as follows: Kinome profiling TNK2. The following applies: read-out: Inhibitory activity TNK2; for inhibition at 0.1 µM: 100 nM. As for the experimental part: as §1
The next assay deals with MRCK-β (Homo sapiens, UniProt Q9Y5S2). The assay is described as follows: Kinome profiling MRCK-β. The following applies: read-out: Inhibitory activity MRCK-β; for inhibition at 0.1 µM: 100 nM. As for the experimental part: as §1
For a further assay, the target named is AMP-A1B1G1 (Homo sapiens, UniProt Q13131). The assay is described as follows: Kinome profiling AMP-A1B1G1. The conditions noted are these: read-out: Inhibitory activity AMP-A1B1G1; for inhibition at 0.1 µM: 100 nM. As for the experimental part: as §1
Another assay deals with T3, SPHK2 (Homo sapiens, UniProt Q9NRA0).
T3 sequence (Q9NRA0 1-654): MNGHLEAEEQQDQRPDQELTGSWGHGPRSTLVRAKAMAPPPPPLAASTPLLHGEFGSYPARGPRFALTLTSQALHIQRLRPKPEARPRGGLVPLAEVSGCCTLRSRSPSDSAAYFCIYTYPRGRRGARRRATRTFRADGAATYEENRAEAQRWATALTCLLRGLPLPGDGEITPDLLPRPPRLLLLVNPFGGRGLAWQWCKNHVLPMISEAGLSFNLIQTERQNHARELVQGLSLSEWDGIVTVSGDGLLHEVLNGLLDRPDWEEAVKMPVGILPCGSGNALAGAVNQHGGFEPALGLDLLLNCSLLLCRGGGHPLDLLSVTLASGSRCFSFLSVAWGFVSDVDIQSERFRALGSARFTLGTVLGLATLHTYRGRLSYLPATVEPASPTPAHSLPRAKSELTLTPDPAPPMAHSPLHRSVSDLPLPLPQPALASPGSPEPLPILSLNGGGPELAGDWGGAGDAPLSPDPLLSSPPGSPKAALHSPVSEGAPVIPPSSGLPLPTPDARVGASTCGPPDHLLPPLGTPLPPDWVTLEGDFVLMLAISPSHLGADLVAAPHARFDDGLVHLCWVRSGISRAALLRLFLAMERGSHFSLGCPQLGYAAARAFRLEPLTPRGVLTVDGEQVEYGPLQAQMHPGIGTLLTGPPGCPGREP
The assay is described as follows: Kinome profiling SPHK2. The conditions noted are these: read-out: Inhibitory activity SPHK2; for inhibition at 0.1 µM: 100 nM. How it is done:
as §1

Where [1] appears, read: Table 4, read-out: Inhibitory Activity PRKD2.
The mark [2] stands for this setting: read-out: Inhibitory activity PRKD2.

Chain of MRCK-β (Q9Y5S2 whole entry): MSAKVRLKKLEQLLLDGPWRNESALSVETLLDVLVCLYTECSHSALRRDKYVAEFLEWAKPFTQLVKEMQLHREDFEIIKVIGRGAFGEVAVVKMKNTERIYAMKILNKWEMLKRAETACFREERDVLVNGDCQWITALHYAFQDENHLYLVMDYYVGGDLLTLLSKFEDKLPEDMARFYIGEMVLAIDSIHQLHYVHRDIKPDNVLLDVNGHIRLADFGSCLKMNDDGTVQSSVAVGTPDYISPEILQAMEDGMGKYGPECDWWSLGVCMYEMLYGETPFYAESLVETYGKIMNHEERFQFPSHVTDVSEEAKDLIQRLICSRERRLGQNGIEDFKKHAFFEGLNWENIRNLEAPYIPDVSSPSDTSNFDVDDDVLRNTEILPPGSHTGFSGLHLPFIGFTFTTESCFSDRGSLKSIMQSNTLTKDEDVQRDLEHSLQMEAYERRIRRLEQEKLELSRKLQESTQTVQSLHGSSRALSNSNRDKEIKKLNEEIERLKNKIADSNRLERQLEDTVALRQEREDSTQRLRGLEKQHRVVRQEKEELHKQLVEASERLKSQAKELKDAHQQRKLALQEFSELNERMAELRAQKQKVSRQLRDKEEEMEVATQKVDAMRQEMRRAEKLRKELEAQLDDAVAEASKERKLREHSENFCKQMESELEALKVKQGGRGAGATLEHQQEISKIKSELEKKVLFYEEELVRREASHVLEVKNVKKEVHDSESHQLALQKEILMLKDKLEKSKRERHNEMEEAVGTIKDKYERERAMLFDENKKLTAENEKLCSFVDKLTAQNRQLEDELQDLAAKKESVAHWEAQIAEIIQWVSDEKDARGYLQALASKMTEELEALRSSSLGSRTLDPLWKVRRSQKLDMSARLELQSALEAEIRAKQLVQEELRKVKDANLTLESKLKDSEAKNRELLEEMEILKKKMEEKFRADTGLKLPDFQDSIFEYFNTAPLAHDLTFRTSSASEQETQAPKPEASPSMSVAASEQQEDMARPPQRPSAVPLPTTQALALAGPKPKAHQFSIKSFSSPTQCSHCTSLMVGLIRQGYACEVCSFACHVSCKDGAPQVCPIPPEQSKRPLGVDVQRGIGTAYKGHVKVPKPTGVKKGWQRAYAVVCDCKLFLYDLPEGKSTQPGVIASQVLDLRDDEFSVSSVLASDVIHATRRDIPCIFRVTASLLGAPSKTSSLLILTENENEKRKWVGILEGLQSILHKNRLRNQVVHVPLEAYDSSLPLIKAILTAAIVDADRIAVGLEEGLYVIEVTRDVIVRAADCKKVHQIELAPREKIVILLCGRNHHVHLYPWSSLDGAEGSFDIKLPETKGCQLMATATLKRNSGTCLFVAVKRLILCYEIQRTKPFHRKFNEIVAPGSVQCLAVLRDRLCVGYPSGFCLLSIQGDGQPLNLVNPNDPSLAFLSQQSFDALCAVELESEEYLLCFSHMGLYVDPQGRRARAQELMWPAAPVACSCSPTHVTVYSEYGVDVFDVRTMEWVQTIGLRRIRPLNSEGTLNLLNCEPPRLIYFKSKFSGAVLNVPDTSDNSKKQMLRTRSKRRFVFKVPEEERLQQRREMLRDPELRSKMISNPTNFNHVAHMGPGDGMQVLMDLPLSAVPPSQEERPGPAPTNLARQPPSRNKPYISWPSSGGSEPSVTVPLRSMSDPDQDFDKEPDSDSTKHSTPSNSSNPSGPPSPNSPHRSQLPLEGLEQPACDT
Chain of BLK (P51451 whole entry): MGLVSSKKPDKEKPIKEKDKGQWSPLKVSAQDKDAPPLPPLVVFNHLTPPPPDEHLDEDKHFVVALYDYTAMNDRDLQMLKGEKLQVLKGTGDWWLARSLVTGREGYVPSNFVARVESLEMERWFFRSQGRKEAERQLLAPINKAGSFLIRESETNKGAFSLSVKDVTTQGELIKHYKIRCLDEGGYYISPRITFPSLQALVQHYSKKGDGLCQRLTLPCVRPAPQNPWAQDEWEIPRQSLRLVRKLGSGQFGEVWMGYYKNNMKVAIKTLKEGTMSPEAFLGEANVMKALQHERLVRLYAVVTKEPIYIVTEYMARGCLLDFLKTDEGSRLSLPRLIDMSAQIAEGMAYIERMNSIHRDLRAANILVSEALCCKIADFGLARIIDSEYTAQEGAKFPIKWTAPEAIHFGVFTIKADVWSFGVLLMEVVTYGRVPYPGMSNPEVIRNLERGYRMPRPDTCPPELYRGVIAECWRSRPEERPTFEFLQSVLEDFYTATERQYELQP
Chain of AMP-A1B1G1 (Q13131 whole entry): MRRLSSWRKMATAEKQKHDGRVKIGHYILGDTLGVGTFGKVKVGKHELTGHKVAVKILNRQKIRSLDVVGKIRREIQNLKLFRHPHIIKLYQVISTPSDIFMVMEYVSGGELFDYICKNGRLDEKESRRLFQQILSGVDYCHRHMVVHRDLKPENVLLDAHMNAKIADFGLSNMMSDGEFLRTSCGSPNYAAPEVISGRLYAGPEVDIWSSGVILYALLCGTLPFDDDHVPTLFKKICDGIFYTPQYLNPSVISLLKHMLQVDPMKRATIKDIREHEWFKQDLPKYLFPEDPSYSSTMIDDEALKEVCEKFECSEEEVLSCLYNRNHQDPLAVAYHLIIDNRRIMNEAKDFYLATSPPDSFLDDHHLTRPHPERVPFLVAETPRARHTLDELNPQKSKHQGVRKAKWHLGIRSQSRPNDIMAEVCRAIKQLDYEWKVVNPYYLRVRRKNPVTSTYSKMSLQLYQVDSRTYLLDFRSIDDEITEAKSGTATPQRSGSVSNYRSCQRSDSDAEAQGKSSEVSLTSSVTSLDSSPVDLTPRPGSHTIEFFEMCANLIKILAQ
Chain of AMP-A1B1G1 (Q9Y478 whole entry partner): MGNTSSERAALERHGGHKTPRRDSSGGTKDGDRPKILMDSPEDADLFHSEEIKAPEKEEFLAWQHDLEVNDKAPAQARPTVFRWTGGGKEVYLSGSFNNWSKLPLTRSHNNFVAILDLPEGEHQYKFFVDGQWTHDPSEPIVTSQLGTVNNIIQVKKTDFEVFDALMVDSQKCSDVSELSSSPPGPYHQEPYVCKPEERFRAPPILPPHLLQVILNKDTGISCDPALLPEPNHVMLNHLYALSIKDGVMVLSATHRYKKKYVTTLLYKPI
Chain of AMP-A1B1G1 (P54619 whole entry partner): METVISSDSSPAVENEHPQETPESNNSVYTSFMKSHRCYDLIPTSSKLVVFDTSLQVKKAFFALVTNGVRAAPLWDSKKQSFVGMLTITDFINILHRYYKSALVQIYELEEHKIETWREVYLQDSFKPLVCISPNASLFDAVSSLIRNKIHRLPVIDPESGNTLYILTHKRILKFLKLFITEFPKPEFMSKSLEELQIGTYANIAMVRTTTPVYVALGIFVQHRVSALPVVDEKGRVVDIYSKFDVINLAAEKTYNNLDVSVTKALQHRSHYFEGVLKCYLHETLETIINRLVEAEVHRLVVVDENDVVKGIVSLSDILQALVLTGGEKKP
Chain of TNK2 (Q07912 whole entry): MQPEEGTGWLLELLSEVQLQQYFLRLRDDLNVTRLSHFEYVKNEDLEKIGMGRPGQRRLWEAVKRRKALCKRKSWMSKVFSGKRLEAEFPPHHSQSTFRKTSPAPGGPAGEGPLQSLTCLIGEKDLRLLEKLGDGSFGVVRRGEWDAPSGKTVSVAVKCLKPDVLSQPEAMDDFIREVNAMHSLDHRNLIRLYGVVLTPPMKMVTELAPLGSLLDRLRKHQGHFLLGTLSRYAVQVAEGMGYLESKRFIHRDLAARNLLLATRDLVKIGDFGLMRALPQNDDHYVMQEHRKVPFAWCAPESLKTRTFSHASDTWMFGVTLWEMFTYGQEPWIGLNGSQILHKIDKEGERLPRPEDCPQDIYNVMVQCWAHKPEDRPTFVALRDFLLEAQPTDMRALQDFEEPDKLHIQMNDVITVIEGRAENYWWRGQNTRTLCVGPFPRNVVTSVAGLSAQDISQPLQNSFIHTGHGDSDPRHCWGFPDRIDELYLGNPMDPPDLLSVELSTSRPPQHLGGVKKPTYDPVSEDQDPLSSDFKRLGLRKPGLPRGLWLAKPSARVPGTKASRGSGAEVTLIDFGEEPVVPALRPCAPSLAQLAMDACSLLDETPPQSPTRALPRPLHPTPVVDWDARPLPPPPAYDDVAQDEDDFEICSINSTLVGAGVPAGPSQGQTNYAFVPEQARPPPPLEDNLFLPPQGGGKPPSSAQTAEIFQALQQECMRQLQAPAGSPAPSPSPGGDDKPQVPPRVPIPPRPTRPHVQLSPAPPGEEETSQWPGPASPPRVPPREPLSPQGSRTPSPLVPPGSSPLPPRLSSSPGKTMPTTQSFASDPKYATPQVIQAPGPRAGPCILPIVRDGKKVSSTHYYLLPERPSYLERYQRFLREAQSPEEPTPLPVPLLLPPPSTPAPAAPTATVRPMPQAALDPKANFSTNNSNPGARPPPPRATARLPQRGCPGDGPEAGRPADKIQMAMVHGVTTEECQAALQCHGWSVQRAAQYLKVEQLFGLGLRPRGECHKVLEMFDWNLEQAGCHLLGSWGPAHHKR

Turning to `COc1cc(-c2cc(-c3ccc(N4CCNCC4)cc3)cnc2C)cc(OC)c1OC` [Compound 10, 1-(4-(6-methyl-5-(3,4,5-trimethoxyphenyl)pyridin-3-yl)phenyl)piperazine], the inhibition at 0.1 µM on DDR2 was -1%; at BLK, 1%; on PRKD2 (setting [1]), 16%; at PRKD2 (setting [2]) it was 16%; on TNK2, 6%; at MRCK-β, 0%. Also, the inhibition at 0.1 µM at AMP-A1B1G1 is 5%; at SPHK2, 13%. Moreover, the inhibition at 1 µM at DDR2 is 20%; on BLK it was 12%; on PRKD2 (setting [1]) it was 57%; at PRKD2 (setting [2]), 57%; at TNK2, 35%; on MRCK-β, 0%. Also, the inhibition at 1 µM at AMP-A1B1G1 stood at 1%; on SPHK2 it was 5%.
`COc1cc(-c2cc(-c3ccc(N4CCNCC4)cc3)cnc2N)cc(OC)c1OC` [Compound 15, 5-(4-(piperazin-1-yl)phenyl)-3-(3,4,5-trimethoxyphenyl)pyridin-2-amine]: the inhibition at 0.1 µM on DDR2 turned out to be 32%; at BLK, 16%; on PRKD2 (setting [2]) it was 12%; on TNK2, 6%; at MRCK-β, 3%; on AMP-A1B1G1 it was 0%. In addition, the inhibition at 0.1 µM on SPHK2 came to 6%. For the same compound, the inhibition at 1 µM on DDR2 is 86%; at BLK, 64%; at PRKD2 (setting [2]), 54%; on TNK2, 44%; on MRCK-β, 22%; on AMP-A1B1G1, 5%. Moreover, the inhibition at 1 µM on SPHK2 was -6%.
